Laboratory results from patent US9266883B2, “Ring-fused bicyclic pyridyl derivatives as FGFR4 inhibitors” (Novartis AG, priority 2013, dated 2016).

Experiments:
[1] = molecular target: FGFR4 (GST-FGFR4(388-802)) (Homo sapiens (Human), UniProt P22455); assay: In-vitro biochemical kinase assay for FGFR4 (Caliper microfluidic mobility shift); conditions: read-out: Biochemical FGFR4 IC50
Tel-FGFR4 = Tel-FGFR4 (Homo sapiens (Human), UniProt P22455); assay: In vitro cellular kinase assay for FGFR4 (BaF3-Tel-FGFR4 cells, MSD capture ELISA of tyrosine phosphorylation); type: cell-based; conditions: BaF3-Tel-FGFR4 cells, 1 hour incubation; read-out: Cellular BaF3 FGFR4 IC50
Chain of Tel-FGFR4 (P22455 other isoform, or with tags, fused parts or gaps): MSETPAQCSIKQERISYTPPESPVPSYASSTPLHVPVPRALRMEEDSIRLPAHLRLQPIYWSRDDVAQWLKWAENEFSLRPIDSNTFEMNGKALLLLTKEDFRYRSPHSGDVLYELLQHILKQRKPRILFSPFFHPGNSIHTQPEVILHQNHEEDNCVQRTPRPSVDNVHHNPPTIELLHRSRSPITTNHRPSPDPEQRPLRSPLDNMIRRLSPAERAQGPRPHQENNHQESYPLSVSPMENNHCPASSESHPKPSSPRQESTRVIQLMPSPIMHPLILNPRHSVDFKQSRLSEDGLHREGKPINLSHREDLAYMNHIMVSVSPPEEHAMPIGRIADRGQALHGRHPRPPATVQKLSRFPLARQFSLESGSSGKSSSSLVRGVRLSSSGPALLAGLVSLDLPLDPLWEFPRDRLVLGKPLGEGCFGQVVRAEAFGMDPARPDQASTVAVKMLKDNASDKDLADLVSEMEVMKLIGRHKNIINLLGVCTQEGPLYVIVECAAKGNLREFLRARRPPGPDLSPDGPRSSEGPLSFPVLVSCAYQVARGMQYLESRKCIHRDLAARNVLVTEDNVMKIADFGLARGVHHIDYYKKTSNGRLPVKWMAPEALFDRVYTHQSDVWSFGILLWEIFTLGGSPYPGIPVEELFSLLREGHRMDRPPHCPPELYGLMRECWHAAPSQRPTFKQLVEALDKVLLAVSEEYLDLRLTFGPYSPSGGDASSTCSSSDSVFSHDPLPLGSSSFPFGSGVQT

FGFR1 (407-822) = FGFR1 (407-822) (Homo sapiens (Human), UniProt P11362); assay: In vitro biochemical assay for FGFR1
Chain of FGFR1 (407-822) (P11362 407-822): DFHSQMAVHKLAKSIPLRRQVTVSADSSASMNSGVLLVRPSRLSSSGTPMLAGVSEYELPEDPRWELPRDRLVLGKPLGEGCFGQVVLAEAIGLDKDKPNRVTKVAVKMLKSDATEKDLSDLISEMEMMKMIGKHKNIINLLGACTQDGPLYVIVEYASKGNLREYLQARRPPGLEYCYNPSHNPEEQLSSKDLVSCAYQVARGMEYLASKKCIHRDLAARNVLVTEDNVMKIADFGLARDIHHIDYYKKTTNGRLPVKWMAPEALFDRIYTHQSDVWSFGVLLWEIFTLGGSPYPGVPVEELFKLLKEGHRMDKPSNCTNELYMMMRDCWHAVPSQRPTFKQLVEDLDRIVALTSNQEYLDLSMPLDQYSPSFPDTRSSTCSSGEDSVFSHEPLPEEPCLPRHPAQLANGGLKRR

FGFR2 (406-821) = FGFR2 (406-821) (Homo sapiens (Human), UniProt P21802); assay: In vitro biochemical assay for FGFR2
Chain of FGFR2 (406-821) (P21802 406-821): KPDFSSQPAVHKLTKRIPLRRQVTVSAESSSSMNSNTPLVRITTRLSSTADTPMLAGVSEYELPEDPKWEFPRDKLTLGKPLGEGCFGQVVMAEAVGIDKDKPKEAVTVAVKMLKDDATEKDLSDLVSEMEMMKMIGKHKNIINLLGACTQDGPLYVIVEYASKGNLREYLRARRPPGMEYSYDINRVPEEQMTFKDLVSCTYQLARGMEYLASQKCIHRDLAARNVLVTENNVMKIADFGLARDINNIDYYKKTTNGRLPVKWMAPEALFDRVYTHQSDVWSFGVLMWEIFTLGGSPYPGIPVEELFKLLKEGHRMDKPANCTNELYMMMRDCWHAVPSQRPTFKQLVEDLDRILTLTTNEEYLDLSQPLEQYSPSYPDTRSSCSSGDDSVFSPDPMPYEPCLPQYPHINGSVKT

FGFR3 (411-806) = FGFR3 (411-806) (Homo sapiens (Human), UniProt P22607); assay: In vitro biochemical assay for FGFR3
Chain of FGFR3 (411-806) (P22607 411-806): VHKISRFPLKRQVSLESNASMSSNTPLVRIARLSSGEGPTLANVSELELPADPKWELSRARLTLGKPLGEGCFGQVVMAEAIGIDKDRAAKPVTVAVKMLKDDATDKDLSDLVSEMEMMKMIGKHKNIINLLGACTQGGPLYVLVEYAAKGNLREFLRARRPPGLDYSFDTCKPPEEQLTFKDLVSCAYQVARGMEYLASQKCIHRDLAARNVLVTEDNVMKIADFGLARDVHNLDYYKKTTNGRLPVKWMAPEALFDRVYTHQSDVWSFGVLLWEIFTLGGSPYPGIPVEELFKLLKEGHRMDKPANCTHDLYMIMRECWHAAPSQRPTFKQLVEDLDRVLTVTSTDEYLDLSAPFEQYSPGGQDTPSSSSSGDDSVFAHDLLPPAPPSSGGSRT

[2] = tested on: HuH-7 hepatocellular carcinoma cells; assay: CellTiter Glo (CTG) Assay; conditions: Homo sapiens, Huh-7, 72 h, read-out: HUH7 proliferation (nM) CTG

Chain of FGFR4 (GST-FGFR4(388-802)) (P22455 388-802): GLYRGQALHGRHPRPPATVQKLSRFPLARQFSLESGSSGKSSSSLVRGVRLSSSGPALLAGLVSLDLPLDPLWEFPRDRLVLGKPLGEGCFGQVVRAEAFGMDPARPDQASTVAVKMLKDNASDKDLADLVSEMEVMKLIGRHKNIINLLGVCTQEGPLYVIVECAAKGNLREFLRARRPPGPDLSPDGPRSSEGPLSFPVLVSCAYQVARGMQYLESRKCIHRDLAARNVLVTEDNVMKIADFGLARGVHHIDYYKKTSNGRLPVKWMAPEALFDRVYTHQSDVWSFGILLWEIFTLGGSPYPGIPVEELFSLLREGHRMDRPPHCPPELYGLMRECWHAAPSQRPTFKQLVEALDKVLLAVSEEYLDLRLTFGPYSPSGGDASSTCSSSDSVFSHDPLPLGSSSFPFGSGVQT

| SMILES | IC50 [1] | IC50 (Tel-FGFR4) | IC50 (FGFR1 (407-822)) | IC50 (FGFR2 (406-821)) | IC50 (FGFR3 (411-806)) | IC50 [2] |
| --- | --- | --- | --- | --- | --- | --- |
| CC(=O)N1CCN(Cc2cc3c(nc2C=O)N(C(=O)Nc2cc(OC(C)C)c(C#N)cn2)CCC3)CC1 [Example 134, 6-((4-acetylpiperazin-1-yl)methyl)-N-(5-cyano-4-isopropoxypyridin-2-yl)-7-formyl-3,4-dihydro-1,8-naphthyridine-1(2H)-carboxamide] | 0.0019 µM | 0.0205 µM | > 10 µM | > 10 µM | > 10 µM | 450 nM |
| COCCNc1cc(NC(=O)N2CCCc3cc(N4CCC(C)C4=O)c(C=O)nc32)ncc1C#N (racemic) [Example 261, N-(5-cyano-4-((2-methoxyethyl)amino)pyridin-2-yl)-7-formyl-6-(3-methyl-2-oxopyrrolidin-1-yl)-3,4-dihydro-1,8-naphthyridine-1(2H)-carboxamide] |  |  | > 10 µM | > 10 µM | > 10 µM | 2540 nM |
| COCCNc1cc(NC(=O)N2c3nc(C=O)c(CN4CCN(C)CC4=O)cc3CC[C@@H]2C)ncc1C#N [Example 228, (S)-N-(5-cyano-4-((2-methoxyethyl)amino)pyridin-2-yl)-7-formyl-2-methyl-6-((4-methyl-2-oxopiperazin-1-yl)methyl)-3,4-dihydro-1,8-naphthyridine-1(2H)-carboxamide] | 0.0006 µM | 0.0062 µM | > 10 µM | > 10 µM | > 10 µM | 62 nM |
| COCCNc1cc(NC(=O)N2CCCc3cc(-c4cnc(C)s4)c(C=O)nc32)ncc1C#N [Example 252, N-(5-cyano-4-((2-methoxyethyl)amino)pyridin-2-yl)-7-formyl-6-(2-methylthiazol-5-yl)-3,4-dihydro-1,8-naphthyridine-1(2H)-carboxamide] |  |  | > 10 µM | > 10 µM | > 10 µM | 395 nM |
| N#Cc1cnc(NC(=O)N2CCCc3cc(CO)c(C=O)nc32)cc1NCC1CCCOC1 (racemic) [Example 55, N-(5-cyano-4-(((tetrahydro-2H-pyran-3-yl)methyl)amino)pyridin-2-yl)-7-formyl-6-(hydroxymethyl)-3,4-dihydro-1,8-naphthyridine-1(2H)-carboxamide] |  |  | > 10 µM | > 10 µM | > 10 µM | 202 nM |
| COCCNc1cc(NC(=O)N2CCCc3cc(CN(C)C(=O)COC)c(C=O)nc32)ncc1C#N [Example 148, N-(5-cyano-4-((2-methoxyethyl)amino)pyridin-2-yl)-7-formyl-6-((2-methoxy-N-methylacetamido)methyl)-3,4-dihydro-1,8-naphthyridine-1(2H)-carboxamide] |  |  | > 10 µM | > 10 µM | > 10 µM | 45.5 nM |
| COCCNc1cc(NC(=O)N2CCCc3cc(CN4CCSCC4=O)c(C=O)nc32)ncc1C#N [Example 149, N-(5-cyano-4-((2-methoxyethyl)amino)pyridin-2-yl)-7-formyl-6-((3-oxothiomorpholino)methyl)-3,4-dihydro-1,8-naphthyridine-1(2H)-carboxamide] | 0.0001 µM | 0.0053 µM | > 10 µM | > 10 µM | > 10 µM | 77.5 nM |
| COCCNc1cc(NC(=O)N2CCCc3cc(CN4CCS(=O)(=O)CC4=O)c(C=O)nc32)ncc1C#N [Example 150, N-(5-cyano-4-((2-methoxyethyl)amino)pyridin-2-yl)-6-((1,1-dioxido-3-oxothiomorpholino)methyl)-7-formyl-3,4-dihydro-1,8-naphthyridine-1(2H)-carboxamide] | 0.0012 µM | 0.0058 µM | > 10 µM | > 10 µM | > 10 µM | 45.5 nM |
| O=Cc1ccc2c(n1)N(C(=O)Nc1ccc(C(F)(F)F)cn1)CCO2 [Example 14, 6-formyl-N-(5-(trifluoromethyl)pyridin-2-yl)-2H-pyrido[3,2-b][1,4]oxazine-4(3H)-carboxamide] |  |  | > 10 µM | > 10 µM | > 10 µM |  |
| CN(C)CC(C)(O)CNc1cc(NC(=O)N2CCCc3cc(CO)c(C=O)nc32)ncc1C#N (racemic) [Example 87, N-(5-cyano-4-((3-(dimethylamino)-2-hydroxy-2-methylpropyl)amino)pyridin-2-yl)-7-formyl-6-(hydroxymethyl)-3,4-dihydro-1,8-naphthyridine-1(2H)-carboxamide] |  |  | > 10 µM | > 10 µM | > 10 µM |  |
| COc1cc(NC(=O)N2CCCc3ccc(C=O)nc32)ncc1C#N [Example 13, N-(5-cyano-4-methoxypyridin-2-yl)-7-formyl-3,4-dihydro-1,8-naphthyridine-1(2H)-carboxamide] |  |  | > 10 µM | > 10 µM | > 10 µM |  |
| CC(C)Nc1cc(NC(=O)N2CCCc3cc(CN4CCN(C)CC4=O)c(C=O)nc32)ncc1C#N [Example 95, N-(5-cyano-4-(isopropylamino)pyridin-2-yl)-7-formyl-6-((4-methyl-2-oxopiperazin-1-yl)methyl)-3,4-dihydro-1,8-naphthyridine-1(2H)-carboxamide] |  |  | > 10 µM | > 10 µM | > 10 µM | 45 nM |
| COCCNc1cc(NC(=O)N2CCCc3cc(CN4CCOCC4=O)c(C=O)nc32)ncc1C#N [Example 98, N-(5-cyano-4-((2-methoxyethyl)amino)pyridin-2-yl)-7-formyl-6-((3-oxomorpholino)methyl)-3,4-dihydro-1,8-naphthyridine-1(2H)-carboxamide] |  |  | > 10 µM | > 10 µM | > 10 µM |  |
| N#Cc1ccc(NC(=O)N2CCC(O)c3ccc(C=O)nc32)nc1 (racemic) [Example 79, N-(5-cyanopyridin-2-yl)-7-formyl-4-hydroxy-3,4-dihydro-1,8-naphthyridine-1(2H)-carboxamide] | 0.0325 µM | 0.194 µM | > 10 µM | > 10 µM | > 10 µM |  |
| COCCOc1cc(NC(=O)N2CCCc3cc(C4CC4)c(C=O)nc32)ncc1C#N [Example 62, N-(5-cyano-4-(2-methoxyethoxyl)pyridin-2-yl)-6-cyclopropyl-7-formyl-3,4-dihydro-1,8-naphthyridine-1(2H)-carboxamide] |  |  | > 10 µM | > 10 µM | > 10 µM | 599 nM |
| CCOc1cc(NC(=O)N2CCCc3ccc(C=O)nc32)ncc1C#N [Example 19, N-(5-cyano-4-ethoxypyridin-2-yl)-7-formyl-3,4-dihydro-1,8-naphthyridine-1(2H)-carboxamide] |  |  | > 10 µM | > 10 µM | > 10 µM |  |
| N#Cc1ccc(NC(=O)N2CCCc3ccc(C=O)nc32)nc1 [Example 3, N-(5-cyanopyridin-2-yl)-7-formyl-3,4-dihydro-1,8-naphthyridine-1(2H)-carboxamide] |  |  | > 10 µM | > 10 µM | > 10 µM |  |
| COCCOc1cc(NC(=O)N2CCCc3cc(CN(C)C)c(C=O)nc32)ncc1C#N [Example 64, N-(5-cyano-4-(2-methoxyethoxyl)pyridin-2-yl)-6-((dimethylamino)methyl)-7-formyl-3,4-dihydro-1,8-naphthyridine-1(2H)-carboxamide] | 0.16 µM | 0.713 µM | > 10 µM | > 10 µM | > 10 µM |  |
| COCC(C)Oc1cc(NC(=O)N2CCCc3cc(CO)c(C=O)nc32)ncc1C#N (racemic) [Example 48, N-(5-cyano-4-((1-methoxypropan-2-yl)oxy)pyridin-2-yl)-7-formyl-6-(hydroxymethyl)-3,4-dihydro-1,8-naphthyridine-1(2H)-carboxamide] | 0.0032 µM | 0.0088 µM | > 10 µM | > 10 µM | > 10 µM |  |
| COCCOc1cc(NC(=O)N2CCCCc3ccc(C=O)nc32)ncc1C#N [Example 202, N-(5-cyano-4-(2-methoxyethoxyl)pyridin-2-yl)-2-formyl-7,8-dihydro-5H-pyrido[2,3-b]azepine-9(6H)-carboxamide] |  |  | > 10 µM | > 10 µM | > 10 µM | > 3000 nM |
| CN(C)CCOc1cc(NC(=O)N2CCCc3ccc(C=O)nc32)ncc1C#N [Example 38, N-(5-cyano-4-(2-(dimethylamino)ethoxy)pyridin-2-yl)-7-formyl-3,4-dihydro-1,8-naphthyridine-1(2H)-carboxamide] |  |  | > 10 µM | > 10 µM | > 10 µM |  |
| N#Cc1cnc(NC(=O)N2CCCc3ccc(C=O)nc32)cn1 [Example 12, N-(5-cyanopyrazin-2-yl)-7-formyl-3,4-dihydro-1,8-naphthyridine-1(2H)-carboxamide] |  |  | > 10 µM | > 10 µM | > 10 µM |  |
| COCCNc1cc(NC(=O)N2CCCc3cc(CO)c(C=O)nc32)ncc1C#N [Example 80, N-(5-cyano-4-((2-methoxyethyl)amino)pyridin-2-yl)-7-formyl-6-(hydroxymethyl)-3,4-dihydro-1,8-naphthyridine-1(2H)-carboxamide] |  |  | > 10 µM | > 10 µM | > 10 µM |  |
| O=Cc1ccc2c(n1)N(C(=O)Nc1ccc(C(F)(F)F)cn1)CCC2 [Example 1, 7-formyl-N-(5-(trifluoromethyl)pyridin-2-yl)-3,4-dihydro-1,8-naphthyridine-1(2H)-carboxamide] |  |  | > 10 µM | > 10 µM | > 10 µM |  |
| CN1CC[C@@H](Oc2cc(NC(=O)N3CCCc4cc(CO)c(C=O)nc43)ncc2C#N)C1 [Example 54, (R)-N-(5-cyano-4-((1-methylpyrrolidin-3-yl)oxy)pyridin-2-yl)-7-formyl-6-(hydroxymethyl)-3,4-dihydro-1,8-naphthyridine-1(2H)-carboxamide] |  |  | > 10 µM | > 10 µM | > 10 µM |  |
